Test results: patent publication US20100004171A1, “Therapeutic Methods for Neuropathic Pain” (priority 2006, published 2010)
Where no end group is shown, it is not given here.

How the values were obtained:
NMDA receptors = settings: cited from earlier work; for effect on hyperalgesia and allodynia: given systemically and locally; for doses at which the effects are seen: reported by some researchers
[1] = system: tactile allodynia in allodynic rats; assay: Tactile allodynia test (von Frey filaments, paw withdrawal threshold) in CCI (Bennett model) rats; type: in vivo, rat; settings: for effect on paw-withdrawal threshold: intrathecal 100 nmol in 10 μl in allodynic rats, day 7 after injury, up to 8 hr
Description: Bennett Model: In this model, approximately 0.8 cm of the left sciatic nerve was exposed and freed with sharpened scissors at middle-thigh level as described by Bennett and Xie.^[76] Four ligatures were placed loosely around the sciatic nerve with 4-0 chromic catgut, with 1 mm space between the ties, which compresses the nerve but epineural blood circulation is preserved. The tissue and skin were closed in layers. […] Most allodynia was seen during the time period of 7-14 days after the surgery.
Intrathecal catheter installation: A PE10 catheter, stretched to a somewhat thinner diameter in the distal part, was introduced into the spinal canal (subarachnoid space) via a 21 G (gauge) cannula between the L5 and L6 lamina and advanced to the lumbar enlargement in rats. The proximal part was tunneled under the skin and led out on the upper dorsal region. The location of the catheter was verified by the injection of 6 μl (50 mg/ml) xylocalne, such that a transient, flaccid paralysis of the legs was produced, and by X-ray after administration of 10 μl iodine contrast medium (Astra, Sweden). The catheter could be kept for up to two weeks in animals.^[79]
(§1) The maximum volume injected at any one time was 10 μl.^[79]
Tactile allodynia test: In a transparent glass chamber (20×20 cm) with a mesh net floor, each animal was subjected to the tactile allodynia test. A positive response is when an innocuous tactile stimulus induces a brief paw withdrawal away from the stimulation, similar to a paw withdrawal due to heat. A set of von Frey filaments from 0.01 to 28 g (Stoelting Co., Wood Dale, Ill.) were applied to the mid-paw of the allodynic rats at 1 gram, and then progressing up or down. The filament was pressed against the plantar surface for 1 to 2 seconds until it bent. Subsequent applications were made with a higher or lower von Frey filament depending on the animal response. The testing always began with normal paws. If a filament induced a brief paw withdrawal of a paw without bending in three out of five tests, the size of the filament was recorded as eliciting a positive withdrawal threshold.^[80] Allodynia was considered to be present when a withdrawal threshold was evoked by a filament corresponding to 8 grams or less.
(§2) In rats with tactile allodynia (a withdrawal threshold with a filament below 8 g), an intrathecal catheter (PE 10) was installed and linked to an osmotic pump (Alzet) in a 37° C. water bath. Following a bolus injection of SCP-1 (30 nmol/kg, 10 μl), agrin siRNA (100 nM) was intrathecally administered continuously by the pump at a rate of 5 μl/1 hour for 4 hr. The animals were subjected to von Frey filament test every 15 min for 4 hr to determine whether the effects of SCP-1 on allodynia suppression are blocked by agrin siRNA. A control siRNA (nFsiRNA) was applied in the same way. The behavioral data was analyzed for agrin effects. Immediately after behavioral experiments, the animals were sacrificed and subjected to protein extraction of lumbar spinal cord, followed by Western-blot analysis as described above.
A blind test was designed for intrathecal drug evaluations. Five days after CCI, rats were subjected to tactile allodynia tests with von Frey filaments. If a filament corresponding to 8 grams or less evoked a withdrawal response on the rat paw (at least 3 responses out of 5 stimuli), the value was designated as the allodynia threshold. […] Either a drug (100 nmol in 10 μl saline) or vehicle (only 10 μl saline) was pre-warmed and intrathecally injected into the allodynic rats. Then the rats were assayed for changes in allodynic and hyperalgesic behavior, agrin gene expression, and agrin protein changes. In addition, distribution and amount of agrin in the dorsal horn were visualized using immunostaining of L5 as reported above in Example 7.

[2] = system: thermal hyperalgesia in allodynic rats; assay: Thermal hyperalgesia test (paw withdrawal latency) in CCI (Bennett) rats; type: in vivo, rat
agrin protein [3] = assay: Western blot of agrin protein in L3-5 spinal cord; type: in vivo, rat
Experimental: Western blot for detecting protein expression of agrin: Agrin protein was analyzed from L3-5 spinal cord with Western blot as described below at times of 1 day, 3 days, and 7 days post-surgery. The changes in these proteins between sham-operated, nerve-injured (no drug), and nerve-injured (pre-emptive drug) groups were analyzed.
Agrin Protein Extraction: The rats were deeply anesthetized with isoflurane and decapitated. Spinal cord L3-5 was quickly removed and immediately placed into tissue lysis buffer (1 ml, Sigma Co., St. Louis, Mo.) that contained protein enzyme inhibitors (1:100, Halt, Pierce). The tissue was homogenized for 2 min and incubated on ice for 45 min. The sample was then centrifuged at 10,000×g for 30 min at 4° C. The supernatant was transferred to a new tube and centrifuged again for further clarifying. The concentration of the protein was determined by an Agilent's Bio-Rad protein chip (Agilent's 2100 bioanalyzer, Santa Clara, Calif.) and by the […] (reagents from Bio-Rad).
(§3) Western blot: Protein (20 μg) from each sample was mixed with 2× electrophoresis buffer and boiled for 5 min. The samples, along with a negative control, were loaded on 4-15% acrylamide tris-glycine SDS gels and electrophoresed in a cell (Bio-Rad) for approximately 1 hr. A Hybond-P polyvinylidene difluoride membrane (Bio-Rad, Hercules, Calif.) was used for transferring the protein in a mini-trans-blot transfer cell (Bio-Rad) for 2 hr. The membrane was then soaked in 2% milk for 1 hour and probed with monoclonal agrin antibody (Agr510 and Agr530, 1:5000, StressGen Biotechnologies Corp., Victoria, Canada) or β-actin antibody (1:5000) at 4° C. overnight with continual shaking. The following day goat anti-mouse secondary antibody conjugated to Alexa Fluor680 (1:5000, Molecular Probe) was added to the membrane and incubated for 1 hr at room temperature. The samples were washed three times with TBS buffer (Tris Buffered Saline, DAKO, Carpinteria, Calif.) between steps. The membrane was then scanned with an Odyssey (LI-COR) scanner and analyzed by Odyssey software (Li-Cor, Lincoln, Nebr.).
as §2, with “Immediately after behavioral experiments, the animals were sacrificed and subjected to protein extraction of lumbar spinal cord, followed by Western-blot analysis as described above.” left out

[4] = system: tactile allodynia in allodynic rats; assay: Tactile allodynia test (von Frey filaments, paw withdrawal threshold) in CCI (Bennett model) rats; type: in vivo, rat
rodents = settings: rodents, dose of 6 mmol/kg; cited from earlier work
agrin protein [5] = assay: Rat lumbar spinal tissue culture, agrin protein by Western blot; type: cell-based
Experimental: (§4) Spinal cord tissue culture: The dorsal horn of fresh rat lumbar spinal cord was cut into 1-mm sections with a sharp blade under sterile conditions and maintained in culture in 12-well plates with DMEM and 10% FBS. After 2 days, 100 μM NMDA was added to 6 wells. The other 6 wells were used as controls. The culture was maintained for 24 hr, and the tissue subjected to RNA and protein extraction as well as RT-PCR and Western blotting to examine alterations of agrin gene and protein, as described in this Example.
as §3, with “The following day goat anti-mouse secondary antibody conjugated to Alexa Fluor680 (1:5000, Molecular Probe) was added to the membrane and incubated for 1 hr at room temperature. The samples were washed three times with TBS buffer (Tris Buffered Saline, DAKO, Carpinteria, Calif.) between steps.” left out, “Nebr.). […]” for “Nebr.).”

agrin mRNA = assay: Rat lumbar spinal tissue culture, agrin mRNA by RT-PCR; type: cell-based; settings: for agrin gene expression: 24 h
Experimental: as §4
Following peripheral nerve injury, large amounts of glutamate, aspartate, and substance P are released into the extracellular space and excite post-synaptic neurons. […] Exogenous NMDA and substance P (“SP”) were used to culture rat lumbar spinal tissue. The normal dorsal part of lumbar spinal cord was cut into 0.5 mm slices and cultured in DMEM plus 10% FBS serum. After culturing for 24 h, the slices were treated with 100 μM NMDA with or without 10 nM substance P. Control slices were not treated with NMDA or substance P. Each group (experimental and control) had six samples. At 6 h and 24 h after treatment, the slices were subjected to RNA and protein extraction. The extractions were then assayed for agrin mRNA and agrin protein as described above in Examples 1-3. Briefly, the agrin mRNA was assayed using RT-PCR using C-terminal agrin primers for 36 cycles; and the agrin protein was assayed using Western Blot.

[6] = Solubility for intrathecal injection; type: physicochemical
Experimental: as §1

[7] = system: transitory inflammatory-induced hyperalgesia; settings: pain model with transitory inflammatory-induced hyperalgesia; cited from earlier work

C[C@@H]([C@@H](O)c1ccc(O)cc1)N1CCC(O)(c2ccccc2)CC1 [(1S,2S)-1-(4-hydroxy-phynel)-2-(4-hydroxy-4-phenyl-piperidino)-1-propanol]
effect on hyperalgesia/allodynia (NMDA receptors; animal models of neuropathic pain): depressed hyperalgesia/allodynia at a dose devoid of adverse effects

CC(=O)Nc1ccc(O)cc1 [APAP, acetaminophen, reference compound]
time after injection at which the effect began to diminish ([1]; intrathecal 100 nmol): 90 min | duration of effect on withdrawal threshold ([1]; intrathecal 100 nmol in 10 μl): short duration | effect on paw-withdrawal threshold [1]: a less robust effect on the withdrawal threshold | maximum withdrawal threshold ([1]; intrathecal, same dose and volume (100 nmol in 10 μl)): about 22 g | increase in paw-withdrawal latency (thermal hyperalgesia) ([2]; intrathecal 100 nmol in 10 μl, CCI (Bennett) rat model): a similar effect on latency | effect on paw-withdrawal latency at 120 min post injection ([2]; intrathecal 100 nmol, 120 min): dropped to the initial latency value | agrin protein (agrin protein [3]; pre-emptive intrathecal injection prior to CCI, 3 and 7 days): did not prevent the drop in agrin protein | effect on tactile allodynia (paw withdrawal threshold) ([4]; pre-emptive intrathecal 100 nmol in 10 μl saline immediately prior to CCI, 0, 3, 7 days): showed an effect similar to SCP-1 | effect on paw withdrawal threshold at 7 days ([4]; pre-emptive intrathecal 100 nmol prior to CCI, 7 days after injury): sharply reduced | lethality (rodents): killed all the animals

C[C@]12N[C@H](Cc3ccccc31)c1ccccc12 [MK801]
effect on agrin protein decrease from NMDA receptor over-stimulation (agrin protein [5]; 20 μM MK801 with either NMDA alone or NMDA plus substance P, 24 hr): blocked agrin decrease | effect on hyperalgesia and allodynia (NMDA receptors): suppress hyperalgesia and allodynia | doses at which the effects are seen (NMDA receptors): only be seen at doses that induce ataxia

CN[C@H](CC(=O)O)C(=O)O [NMDA]
agrin mRNA (agrin mRNA; 100 μM NMDA with or without SP, 6 h): No decrease in agrin mRNA | agrin gene expression (agrin mRNA; 100 μM NMDA, compared to controls without NMDA): visually less | agrin protein (agrin protein [5]; 100 μM NMDA, 24 h): a decrease in agrin

O=C(CNS(=O)(=O)c1ccccc1C(=O)O)Nc1ccc(O)cc1 [SCP-M1]
effect on paw-withdrawal threshold [1]: a faster response and a faster return to normal values for withdrawal thresholds than was seen in SCP-1 | solubility compared with SCP-1 [6]: very similar to that of SCP-1 | solubility in 45% 2-hydroxypropyl-α-cyclodextrin in saline ([6]; 45% cyclodextrin in saline, 10 mM solutions prepared): can dissolve them | solubility in water ([6]; water): do not dissolve readily in water | analgesic activity [7]: high analgesic activity

CNC1(c2ccccc2Cl)CCCCC1=O (stereo not drawn) [ketamine]
effect on hyperalgesia and allodynia (NMDA receptors): suppress hyperalgesia and allodynia | doses at which the effects are seen (NMDA receptors): only be seen at doses that induce ataxia

SP: substance P, increases NMDA receptor excitability by removing magnesium blocking (RPKPQQFFGLM-NH2; ends and bridges not checked; UniProt P20366 58-68, looked up)
agrin gene expression (agrin mRNA; 10 nM substance P added to 100 μM NMDA): enhanced the down-regulation by NMDA

agrin siRNA: siRNA for C-terminal agrin, position 5994; sense GCCCUCAAAGUCCUGUGAUtt (SEQ ID NO: 11), antisense SEQ ID NO: 12 (sense GCCCUCAAAGUCCUGUGAUTT; antisense AUCACAGGACUUUGAGGGCTT; chemistry not given here)
agrin protein level when injected with SCP-1 (agrin protein [3]; siRNA plus SCP-1, allodynic rats, 2 h post-injection): did not return to normal levels | effect on the SCP-1 effect on withdrawal threshold ([4]; siRNA 100 nM intrathecally at 5 μl/hour continuously after bolus injection of SCP-1): antagonized the SCP-1 and inhibited the effect on withdrawal threshold
